Where a SMILES comes first, the peptide text is derived from it. Bridges are numbered along the chain shown (N, C = ends). [ ]: non-standard residue; d: D form. The star is where a group is joined. NH(β-GlcNAc) = CC(=O)N[C@@H]1[C@@H](O)[C@H](O)[C@@H](CO)O[C@H]1N*; Dap = NC[C@H](N)C(=O)O
What was measured:
[1] = system: cell proliferation; details: Singh et al. 2000; Bigioni et al. 2005; cited from earlier work
[2] = system: human glioma; reference GAMG; experiment: Glioma GAMG tumours in nude mice, Cisplatin alone or with Aprepitant; assay type: in vivo; details: Cisplatin 8 mg/kg on days 1 and 7, alone
Description: (§1) Immunocompromised female mice, 5-6 weeks of age were used, nu/nu Balb/c nude mice, provided by Harlan Iberica Barcelona (Spain). They were kept at 24° C. and in sterile conditions with food and water “ad libitum”. […] The tumour size was measured and the mice were evaluated for their state of health and weight daily. […] One of the groups was treated with 200 μl of placebo (control group) and the eight remaining groups with doses of 10 (group 1), 20 (group 2), 30 (group 3), 40 (group 4), 50 (group 5), 60 (group 6), 70 (group 7) and 80 (group 8) mg per kilogram of weight and day of the NK1 receptor antagonist Aprepitant. 3 animals were treated per group, during 28 days. All the mice were sacrificed at the end of the experiment. […] Immunocompromised female mice, 5-6 weeks of age were used, in the same conditions as explained in example 1. […] The tumour size was measured and the mice were evaluated for their state of health and weight daily. […] One of the groups was treated with two single doses of Cisplatin, of 8 mg per kilogram of weight, on days 1 and 7 of the experiment (control group). The eight remaining groups were treated with the same treatment as the control group and the doses of 1 (group 1), 3 (group 2), 5 (group 3), 6 (group 4), 7 (group 5), 8 (group 6), 9 (group 7) and 10 (group 8) mg per kilogram of weight and day, of the NK1 receptor antagonist Aprepitant. […]

[3] = system: human melanoma; reference MEL-HO; experiment: Melanoma MEL-HO tumours in nude mice, Cisplatin alone or with Aprepitant; assay type: in vivo; details: Cisplatin 8 mg/kg on days 1 and 7, alone
Description: as §1

[4] = system: human neuroblastoma; reference KELLY; experiment: Neuroblastoma KELLY tumours in nude mice, Cisplatin alone or with Aprepitant; assay type: in vivo; details: Cisplatin 8 mg/kg on days 1 and 7, alone
Description: as §1

[5] = system: human lymphoma; reference BC-1; experiment: Lymphoma BC-1 tumours in nude mice, Cisplatin alone or with Aprepitant; assay type: in vivo; details: Cisplatin 8 mg/kg on days 1 and 7, alone
Description: as §1

[6] = system: human fibrosarcoma; reference HT-1080; experiment: Fibrosarcoma HT-1080 tumours in nude mice, Cisplatin alone or with Aprepitant; assay type: in vivo; details: Cisplatin 8 mg/kg on days 1 and 7, alone
Description: as §1

[7] = system: human lung cancer; reference HCC-44; experiment: Lung cancer HCC-44 tumours in nude mice, Cisplatin alone or with Aprepitant; assay type: in vivo; details: Cisplatin 8 mg/kg on days 1 and 7, alone
Description: Immunocompromised female mice, 5-6 weeks of age were used, nu/nu Balb/c nude mice, provided by Harlan Iberica Barcelona (Spain). They were kept at 24° C. and in sterile conditions with food and water “ad libitum”. […] The tumour size was measured and the mice were evaluated for their state of health and weight daily. […] One of the groups was treated with 200 μl of placebo (control group) and the eight remaining groups with doses of 10 (group 1), 20 (group 2), 30 (group 3), 40 (group 4), 50 (group 5), 60 (group 6), 70 (group 7) and 80 (group 8) mg per kilogram of weight and day of the NK1 receptor antagonist Aprepitant. 3 animals were treated per group, during 28 days. All the mice were sacrificed at the end of the experiment. […] Immunocompromised female mice, 5-6 weeks of age were used, in the same conditions as explained in example 1. […] The tumour size was measured and the mice were evaluated for their state of health and weight daily. […] One of the groups was treated with Cisplatin at 8 mg per kilogram of weight at single doses on days 1 and 7 of the experiment (control group) and the eight remaining groups with the same treatment as the control group and the doses of 1 (group 1), 3 (group 2), 5 (group 3), 6 (group 4), 7 (group 5), 8 (group 6), 9 (group 7) and 10 (group 8) mg per kilogram of weight and day, of the NK1 receptor antagonist Aprepitant. […]

Structure (SMILES): CC(=O)N[C@@H]1[C@@H](O)[C@H](O)[C@@H](CO)O[C@H]1NC(=O)C[C@@H]1NC(=O)[C@H](CC(C)C)NC(=O)[C@@H]2CNC(=O)C[C@H](NC1=O)C(=O)N[C@@H](Cc1c[nH]c3ccccc13)C(=O)N[C@@H](Cc1ccccc1)C(=O)N2 [MEN 11420, Nepadutant] (cyclo(D(NH(β-GlcNAc))DWF[Dap]L); lactam 2-5)
- Blocking cell proliferation [1]: efficacy thereof in blocking cell proliferation

Structure (SMILES): CC(=O)NC1(c2ccccc2)CCN(CC[C@H](CN(C)C(=O)c2ccccc2)c2ccc(Cl)c(Cl)c2)CC1 [SR 48968]
- Blocking cell proliferation [1]: efficacy thereof in blocking cell proliferation

Structure (SMILES): N.N.[Cl][Pt][Cl] [Cisplatin]
- Tumour size (mean volume of the tumour) ([2]; 7 days): 115 ± 7 cubic millimeters
- Tumour size (mean volume of the tumour) ([2]; 14 days): 85 ± 6 cubic millimeters
- Tumour size (mean volume of the tumour) ([3]; 7 days): 105 ± 6 cubic millimeters
- Tumour size (mean volume of the tumour) ([3]; 14 days): 75 ± 6 cubic millimeters
- Tumour size (mean volume of the tumour) ([4]; 7 days): 95 ± 8 cubic millimeters
- Tumour size (mean volume of the tumour) ([4]; 14 days): 60 ± 8 cubic millimeters
- Tumour size (mean volume of the tumour) ([5]; 7 days): 85 ± 6 cubic millimeters
- Tumour size (mean volume of the tumour) ([5]; 14 days): 50 ± 3 cubic millimeters
- Tumour size (mean volume of the tumour) ([6]; 7 days): 95 ± 5 cubic millimeters
- Tumour size (mean volume of the tumour) ([6]; 14 days): 65 ± 5 cubic millimeters
- Tumour size (mean volume of the tumour) ([7]; 7 days): 105 ± 4 cubic millimeters
- Tumour size (mean volume of the tumour) ([7]; 14 days): 70 ± 7 cubic millimeters

Structure (SMILES): Cc1ccc(CC(=O)N(C)[C@H](Cc2ccc3ccccc3c2)C(=O)N[C@@H]2CCCC[C@@H]2NC(=O)c2c[nH]c3ccccc23)cc1 [MEN 11467]
- Blocking cell proliferation [1]: efficacy thereof in blocking cell proliferation

From patent US10463670B2, “Use of non-peptide NK1 antagonists in a predetermined dose for the treatment of cancer” (SERVICIO ANDALUZ DE SALUD, priority 2013, dated 2019)
